Experimental data published in patent US8716350B2, “Compositions and methods for the treatment of somatosensory disorders” (Algynomics Inc., priority 2010, dated 2014).
Entries after “also recorded” stand apart in the source; their conditions may differ. Where two headings read alike, the source gives them in different places.

Key:
ADRB3 = target: T1, ADRB3 (Homo sapiens, UniProt P13945); assay type: cell-based; conditions: cells transfected with ADRB3
T1 construct: expressed in transfected cells; host or cells: HEK-293 co-expressing GloSensor-22F

ADRB1 = ADRB1 (Homo sapiens, UniProt P08588); conditions: cells transfected with ADRB1
hind paw formalin test = assay: Hind paw formalin test (2.5% formaldehyde), Example 2; assay type: in vivo, mice; conditions: for late phase, C-fiber mediated responses (paw licking): late/tonic phase, last 50 minutes
formalin-induced pain = assay: Formalin test (5% formalin, intraplantar), Example 6; assay type: in vivo, CD-1 (ICR:Crl) mice; conditions: 95% confidence interval in parentheses; for ED50: Mus musculus
thermal thresholds = assay: Radiant heat paw-withdrawal test (acute nociception); assay type: in vivo, CD-1 (ICR:Crl) mice; conditions: high dose; 20 min post-injection
Procedure: All behavioral experiments were performed on naive, adult (6-12 weeks of age) CD-1 (ICR:Crl) mice of both sexes that were bred in-house from breeders obtained from Charles River (Boucherville, QC). All mice were housed with their same-sex littermates (two to four animals per cage) in standard shoebox cages, maintained in a temperature-controlled (20±1° C.) environment (14/10 h light/dark cycle), and fed (Harlan Teklad 8604) and watered ad libitum. Mice were placed on glass floor within small Plexiglas cubicles as described above, and a focused high-intensity projector lamp beam was directed from below onto the mid-plantar surface of the hind paw (Hargreaves et al., 1988). The commercial device (IITC Model 336) was set to 20% active intensity. Latency to withdraw from the stimulus was measured to the nearest 0.1 s. Baseline measurements consisted of testing both hind paws twice on three separate occasions separated by at least 30 min. Following drug administration both hind paws were only tested once at the indicated time point.

mechanical thresholds = assay: Von Frey test (acute nociception); assay type: in vivo, CD-1 (ICR:Crl) mice; conditions: 10, 30, 60 mg/kg
Procedure: (§1) All behavioral experiments were performed on naive, adult (6-12 weeks of age) CD-1 (ICR:Crl) mice of both sexes that were bred in-house from breeders obtained from Charles River (Boucherville, QC). All mice were housed with their same-sex littermates (two to four animals per cage) in standard shoebox cages, maintained in a temperature-controlled (20±1° C.) environment (14/10 h light/dark cycle), and fed (Harlan Teklad 8604) and watered ad libitum. The up-down method of Dixon (1965) was used. Mice were placed on a perforated metal floor (with 5-mm diameter holes placed 7 mm apart) within small Plexiglas cubicles (9×5×5 cm high), and a set of eight calibrated von Frey fibers (Stoelting Touch Test Sensory Evaluator Kit #2 to #9; ranging from ≈0.015 g to ≈1.3 g of force) were applied to the plantar surface of the hind paw until the fibers bowed and then held for 3 s. The threshold force required to elicit withdrawal of the paw (median 50% withdrawal) was determined twice on each hind paw (and averaged) for all baseline measurements (except for the spared nerve injury experiments), with sequential measurements separated by at least 20 min. Following drug administration, one measurement per hind paw was taken at the indicated time point.

[1] = test system: λ-carrageenan thermal and mechanical allodynia; assay: Carrageenan hyperalgesia (radiant heat and von Frey); assay type: in vivo, CD-1 (ICR:Crl) mice
Procedure: as §1, with “point. Mice were placed on glass floor within small Plexiglas cubicles as described above, and a focused high-intensity projector lamp beam was directed from below onto the mid-plantar surface of the hind paw (Hargreaves et al., 1988). The commercial device (IITC Model 336) was set to 20% active intensity. Latency to withdraw from the stimulus was measured to the nearest 0.1 s. Baseline measurements consisted of testing both hind paws twice on three separate occasions separated by at least 30 min. Following drug administration both hind paws were only tested once at the indicated time point. λ-Carrageenan (2%; 20 mg/ml; Sigma) was suspended by sonication in saline, and injected subcutaneously in a volume of 20 μl into the left plantar hindpaw using a 100 μL1 microsyringe with a 30-gauge needle. Mice were tested for thermal and mechanical sensitivity of both hind paws using the radiant heat paw withdrawal and von Frey tests before and 3 h post carrageenan injection. All drugs were injected immediately following the test for carrageenan hyperalgesia at the 3 h time point, and post-drug measurements were taken at 20, 40 and 60 min.” for “point.”

[2] = test system: mechanical allodynia evoked by spared nerve injury; assay: Spared nerve injury, von Frey test; assay type: in vivo, CD-1 (ICR:Crl) mice; conditions: 60 mg/kg; 7 days postoperatively
Procedure: as §1, with “point. […]” for “point.”

rotarod performance = conditions: for ataxia on the rotarod test (in words): 60 mg/kg, 20-80 min after injection; for ED50 for maximal ataxia: 60 min following drug administration, interval in parentheses
in vivo = conditions: mouse
ADRB2 = target: T2, ADRB2 (Homo sapiens, UniProt P07550); assay: GloSensor cAMP-sensitive luciferase reporter assay, HEK-293 cells transfected with ADRB2; assay type: cell-based
T2 construct: expressed in transfected cells; host or cells: HEK-293 co-expressing GloSensor-22F

[3] = test system: cells transfected with only Sport6 vector without inserts; assay: GloSensor cAMP assay, cells transfected with only Sport6 vector without inserts; assay type: cell-based
[4] = 60 mg/kg, up to 60 min post-injection
[5] = 0-10 min post-injection of formalin
[6] = 10-60 min post-injection of formalin
[7] = S-ALG 517 60, 90 mg/kg, R-ALG 517 60, 90, 120 mg/kg, propranolol 10, 30, 60 mg/kg

T1 sequence (P13945 whole entry, species assumed): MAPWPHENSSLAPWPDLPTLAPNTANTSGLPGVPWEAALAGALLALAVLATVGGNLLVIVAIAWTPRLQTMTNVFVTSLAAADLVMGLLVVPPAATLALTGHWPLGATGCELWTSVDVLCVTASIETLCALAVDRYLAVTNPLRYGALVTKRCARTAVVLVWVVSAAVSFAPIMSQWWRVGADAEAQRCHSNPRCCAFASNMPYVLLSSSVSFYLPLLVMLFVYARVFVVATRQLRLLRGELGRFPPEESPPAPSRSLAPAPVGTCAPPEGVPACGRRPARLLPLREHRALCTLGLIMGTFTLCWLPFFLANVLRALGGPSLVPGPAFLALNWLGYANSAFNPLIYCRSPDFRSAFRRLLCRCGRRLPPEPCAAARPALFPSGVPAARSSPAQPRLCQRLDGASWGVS
ADRB1, sequence (P08588 whole entry, species assumed): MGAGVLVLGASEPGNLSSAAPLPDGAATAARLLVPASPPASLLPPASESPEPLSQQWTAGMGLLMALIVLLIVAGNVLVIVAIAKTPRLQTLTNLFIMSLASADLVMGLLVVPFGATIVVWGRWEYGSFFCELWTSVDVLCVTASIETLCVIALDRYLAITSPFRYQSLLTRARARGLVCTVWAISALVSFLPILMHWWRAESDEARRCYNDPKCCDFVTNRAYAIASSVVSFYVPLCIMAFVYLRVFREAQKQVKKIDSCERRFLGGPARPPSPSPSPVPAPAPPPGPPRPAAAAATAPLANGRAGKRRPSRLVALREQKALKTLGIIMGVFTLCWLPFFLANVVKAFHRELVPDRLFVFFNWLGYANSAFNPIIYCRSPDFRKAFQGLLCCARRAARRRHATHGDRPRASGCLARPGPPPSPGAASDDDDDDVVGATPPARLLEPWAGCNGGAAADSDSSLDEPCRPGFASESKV

Compound: Cc1ccc(OCC(O)C(C)NC(C)C)c2c1CCC2 (centres unmarked) [ICI118,551, 3-(isopropylamino)-1-[(7-methyl-4-indanyl)oxy]butan-2-ol]
- blockade of morphine stimulation of cAMP (ADRB3; antagonist 300 nM): no blockade
- blockade of morphine stimulation of cAMP (ADRB1; antagonist 300 nM): partial blockade

Compound: Cc1ccc(Cl)c(OC[C@H](O)CNC(C)(C)C)c1 [R-ALG 517, R-tert-butyl[3-(2-chloro-5-methylphenoxy)-2-hydroxypropyl]amine]
- late phase, C-fiber mediated responses (paw licking) (hind paw formalin test; 10 mg/kg): reduced
- early, A-delta mediated phase responses (paw licking) (hind paw formalin test; early/acute phase, first 5 min): not altered
- ED50 (formalin-induced pain; 0-10 min post-injection of formalin, read-out: half-maximal analgesic dose (ED50), Early Phase): 46 mg/kg
- ED50 (formalin-induced pain; 10-60 min post-injection of formalin, read-out: half-maximal analgesic dose (ED50), Late Phase): 26.6 mg/kg
- thermal thresholds on the radiant heat test (thermal thresholds): increased thermal thresholds
- mechanical thresholds on the von Frey test (mechanical thresholds): no effect
- reversal of thermal hyperalgesia ([1]; 10 mg/kg): transient reversal
- reversal of mechanical hyperalgesia ([1]; 30 mg/kg): transient reversal
- reversal of thermal hyperalgesia ([1]; 30 mg/kg): transient reversal
- reversal of mechanical hyperalgesia [1, 4]: complete and sustained
- reversal of thermal hyperalgesia [1, 4]: complete and sustained
- reversal of mechanical allodynia evoked by spared nerve injury [2]: reversed
- ataxia / sedation on rotarod over the doses tested (in words) (rotarod performance; mouse, in vivo): does not produce significant ataxia
- ED50 at 60 min (in vivo): 166 mg/kg

Compound: CC(C)NC[C@@H](O)COc1cccc2ccccc12 [R-propranolol]
- half-maximal analgesic dose (ED50), Early Phase (formalin-induced pain; [5]): not calculable
- half-maximal analgesic dose (ED50), Late Phase (formalin-induced pain; [6]): not calculable

Compound: Cc1ccc(Cl)c(OC[C@@H](O)CNC(C)(C)C)c1 [S-ALG 517, S-tert-butyl[3-(2-chloro-5-methylphenoxy)-2-hydroxypropyl]amine]
- responses to the hind paw formalin test (hind paw formalin test; 3 mg/kg): without effect
- responses to the hind paw formalin test (hind paw formalin test; 10 mg/kg): without effect
- half-maximal analgesic dose (ED50), Early Phase (formalin-induced pain; [5]): not calculable
- half-maximal analgesic dose (ED50), Late Phase (formalin-induced pain; [6]): not calculable
- ataxia on the rotarod test (in words) (rotarod performance): only slight and possibly not even significant ataxia
- ED50 for maximal ataxia (rotarod performance): 74 mg/kg
- ataxia / sedation on rotarod over the doses tested (in words) (rotarod performance; [7]): produce sedation at much lower doses

Compound: CC(C)NCC(O)COc1cccc2ccccc12 (centres unmarked) [S-Propranolol]
- half-maximal analgesic dose (ED50), Early Phase (formalin-induced pain; [5]): 35 mg/kg
- half-maximal analgesic dose (ED50), Late Phase (formalin-induced pain; [6]): 25.46 mg/kg

Compound: CN1CC[C@]23c4c5ccc(O)c4O[C@H]2[C@@H](O)C=C[C@H]3[C@H]1C5 [morphine]
- ADRB2 agonist potency in comparison with other agonists (in words) (ADRB2): most potent ADRB2 agonist
- agonist potency at ADRB2 as compared to ADRB1 and ADRB3 (ADRB2): 500-1000 times
- agonist stimulation of cAMP production (ADRB2): stimulated cAMP production; also recorded: dose-dependent increases
- intrinsic activity at ADRB2 as compared to ADRB1 and ADRB3 (ADRB2): about 10 times
- intracellular cAMP accumulation (ADRB3): dose-dependent increases
- cAMP response [3]: did not evoke responses
- intracellular cAMP accumulation (ADRB1): dose-dependent increases

Compound: CC(C)NCC(O)COc1cccc2ccccc12 (centres unmarked) [propranolol]
- late phase, C-fiber mediated responses (paw licking) (hind paw formalin test; 10 mg/kg): reduced
- half-maximal analgesic dose (ED50), Early Phase (formalin-induced pain; 0-10 min post-injection of formalin, listed as racemic propranolol): 33 mg/kg
- half-maximal analgesic dose (ED50), Late Phase (formalin-induced pain; 10-60 min post-injection of formalin, listed as racemic propranolol): 21.3 mg/kg
- ataxia on the rotarod test (in words) (rotarod performance): fall off the rotarod very rapidly
- ED50 for maximal ataxia (rotarod performance): 4.76 mg/kg
- ataxia / sedation on rotarod over the doses tested (in words) (rotarod performance; [7]): produce sedation at much lower doses

Compound: dynorphin A
- agonist stimulation of cAMP production (ADRB2): showed agonistic properties
